According to PubChem BioAssay AID248 (DTP/NCI, 2004):
Values joined by “and” are separate entries in the source; they are usually repeats but may differ in a detail not shown here. Identical values can stand only once. Toxic doses and inconclusive results are not listed. No stated cut-off is given here; in the data, active means T/C of 150% or more; inactive means T/C below 125%.

Test system: L1210 leukemia ip in BDF1 mice, survival T/C
Assay: NCI In Vivo Anticancer Drug Screen. Data for tumor model L1210 Leukemia (intraperitoneal) in B6D2F1 (BDF1) mice
Conditions: endpoint: mean survival time, higher = longer survival
Procedure, shortened: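 Ratio derived from survival: compound-dosed mice over vehicle-dosed mice, all bearing a transplantable tumor.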

[1] = dose: 25.0 mg/kg/injection, schedule: Q01DX009 (ip), vehicle: saline
[2] = dose: 50.0 mg/kg/injection, schedule: Q01DX009 (ip), vehicle: saline
[3] = dose: 100.0 mg/kg/injection, schedule: Q01DX009 (ip), vehicle: saline
[4] = dose: 200.0 mg/kg/injection, schedule: Q01DX009 (ip), vehicle: saline
[5] = dose: 100.0 mg/kg/injection, schedule: Q01DX001 (ip), vehicle: Klucel (hydroxypropylcellulose) (HPC)
[6] = dose: 200.0 mg/kg/injection, schedule: Q01DX001 (ip), vehicle: Klucel (hydroxypropylcellulose) (HPC)
[7] = dose: 400.0 mg/kg/injection, schedule: Q01DX001 (ip), vehicle: Klucel (hydroxypropylcellulose) (HPC)
[8] = dose: 100.0 mg/kg/injection, schedule: Q04DX003 (ip), vehicle: saline with Tween-80
[9] = dose: 100.0 mg/kg/injection, schedule: Q01DX009 (ip), vehicle: saline with Tween-80
[10] = dose: 100.0 mg/kg/injection, schedule: Q01DX009 (ip), vehicle: Klucel (hydroxypropylcellulose) (HPC)
[11] = dose: 100.0 mg/kg/injection, schedule: Q04DX003 (ip), vehicle: Klucel (hydroxypropylcellulose) (HPC)
[12] = dose: 200.0 mg/kg/injection, schedule: Q01DX009 (ip), vehicle: Klucel (hydroxypropylcellulose) (HPC)
[13] = dose: 200.0 mg/kg/injection, schedule: Q04DX003 (ip), vehicle: Klucel (hydroxypropylcellulose) (HPC)
[14] = dose: 400.0 mg/kg/injection, schedule: Q01DX009 (ip), vehicle: Klucel (hydroxypropylcellulose) (HPC)
[15] = dose: 400.0 mg/kg/injection, schedule: Q04DX003 (ip), vehicle: Klucel (hydroxypropylcellulose) (HPC)
[16] = dose: 25.0 mg/kg/injection, schedule: Q04DX003 (ip), vehicle: Klucel (hydroxypropylcellulose) (HPC)
[17] = dose: 200.0 mg/kg/injection, schedule: Q04DX003 (ip), vehicle: saline with Tween-80
[18] = dose: 6.25 mg/kg/injection, schedule: Q01DX009 (ip), vehicle: Klucel (hydroxypropylcellulose) (HPC)
[19] = dose: 12.5 mg/kg/injection, schedule: Q01DX009 (ip), vehicle: Klucel (hydroxypropylcellulose) (HPC)
[20] = dose: 25.0 mg/kg/injection, schedule: Q01DX009 (ip), vehicle: Klucel (hydroxypropylcellulose) (HPC)
[21] = dose: 100.0 mg/kg/injection, schedule: Q01DX001 (ip), vehicle: carboxymethylcellulose (CMC)
[22] = dose: 200.0 mg/kg/injection, schedule: Q01DX001 (ip), vehicle: carboxymethylcellulose (CMC)
[23] = dose: 400.0 mg/kg/injection, schedule: Q01DX001 (ip), vehicle: carboxymethylcellulose (CMC)
[24] = dose: 12.5 mg/kg/injection, schedule: Q01DX009 (ip), vehicle: saline
[25] = dose: 400.0 mg/kg/injection, schedule: Q04DX003 (ip), vehicle: saline with Tween-80

Measured: T/C

COC1=CCC2C(=O)OC(=O)C2C1 (centres undefined)
inactive: [1] 90 % of control | [2] 94 % of control | [3] 100 % of control | [4] 109 % of control | dose: 400.0 mg/kg/injection, schedule: Q01DX009 (ip), vehicle: saline 100 % of control

CCCCCCCCCCCCCSCCCCCCSCCCCCCCCCCCCC
inactive: [5] 89 % of control | [6] 96 % of control | [7] 98 % of control

C=C[CH2][Sn]([c]1ccccc1)([c]1ccccc1)[c]1ccccc1
inactive: [2] 92 % of control and 101 % of control | [3] 96 % of control and 101 % of control | [8] 91 % of control | [4] 96 % of control and 97 % of control

CN(C)Cc1cc(C(C)(C)C)c(O)c(C(C)(C)C)c1
inactive: dose: 25.0 mg/kg/injection, schedule: Q01DX009 (ip), vehicle: saline with Tween-80 112 % of control | dose: 50.0 mg/kg/injection, schedule: Q01DX009 (ip), vehicle: saline with Tween-80 98 % of control | [9] 94 % of control | [8] 95 % of control

O=C(c1ccccc1)N(Nc1ccccc1)c1ccccc1
inactive: dose: 50.0 mg/kg/injection, schedule: Q01DX009 (ip), vehicle: Klucel (hydroxypropylcellulose) (HPC) 94 % of control | [10] 97 % of control | [11] 98 % of control | [12] 97 % of control | [13] 93 % of control | [14] 89 % of control | [15] 98 % of control

NC(=O)N/N=C/c1[nH]c(=S)[nH]c(=O)c1Cc1ccc(Br)cc1
inactive: dose: 100.0 mg/kg/injection, schedule: Q01DX001 (ip), vehicle: saline with Tween-80 107 % of control | dose: 200.0 mg/kg/injection, schedule: Q01DX001 (ip), vehicle: saline with Tween-80 95 % of control | dose: 400.0 mg/kg/injection, schedule: Q01DX001 (ip), vehicle: saline with Tween-80 98 % of control

Cc1c(Cl)c(Cl)c(C)c(Cl)c1Cl
inactive: [10] 86 % of control | [11] 95 % of control | [12] 89 % of control | [13] 101 % of control | [14] 87 % of control | [15] 93 % of control

N#Cc1cncc(-c2ccccc2)c1
inactive: [16] 95 % of control | dose: 50.0 mg/kg/injection, schedule: Q04DX003 (ip), vehicle: Klucel (hydroxypropylcellulose) (HPC) 95 % of control | [11] 89 % of control

COC(=O)c1ccccc1NC(=O)c1ccc(C(=O)Nc2ccccc2C(=O)OC)cc1
inactive: [10] 107 % of control | [12] 92 % of control | [14] 92 % of control

O=[N+]([O-])c1ccc(OCCO)c([N+](=O)[O-])c1
inactive: dose: 50.0 mg/kg/injection, schedule: Q04DX003 (ip), vehicle: saline with Tween-80 104 % of control | [8] 104 % of control | [17] 103 % of control

[Br][Hg][CH2]COC[CH2][Hg][Br]
inactive: [18] 103 % of control | [19] 93 % of control | [20] 112 % of control

CS(=O)(=O)OCCCc1nc2ccccc2n1S(C)(=O)=O
inactive: [21] 110 % of control | [22] 110 % of control | [23] 104 % of control

S=C(NCCS)Nc1ccccc1
inactive: [11] 98 % of control | [13] 105 % of control | [15] 99 % of control

CC(C)(C)C1CC[N-]CC1.CC(C)(C)C1CC[N-]CC1.[Cl][Pt+2]([Cl])([Cl])[Cl]
inactive: [24] 96 % of control | dose: 12.5 mg/kg/injection, schedule: Q04DX003 (ip), vehicle: saline 97 % of control | [1] 92 % of control | dose: 25.0 mg/kg/injection, schedule: Q04DX003 (ip), vehicle: saline 90 % of control | dose: 50.0 mg/kg/injection, schedule: Q04DX003 (ip), vehicle: saline 93 % of control and 99 % of control | dose: 100.0 mg/kg/injection, schedule: Q04DX003 (ip), vehicle: saline 94 % of control and 97 % of control

Cc1ccc(Cl)cc1NC(=O)C(Br)C(Br)C(=O)O (centres undefined)
inactive: [10] 91 % of control | [12] 101 % of control

CC(C)CC(NC(=O)c1ccccc1)C(N)=O (centres undefined)
inactive: [9] 90 % of control | dose: 200.0 mg/kg/injection, schedule: Q01DX009 (ip), vehicle: saline with Tween-80 90 % of control

O=C(c1ccccc1)C1(c2ccccc2)SC1(C(=O)c1ccccc1)c1ccccc1 (centres undefined)
inactive: [8] 92 % of control | [17] 91 % of control | [25] 87 % of control

COc1ccc(C(=O)/C=C/c2ccccc2)cc1
inactive: [5] 102 % of control | [6] 113 % of control | [7] 100 % of control

CC(NC(=O)NCCCl)C1CC1 (centres undefined)
inactive: [5] 106 % of control | [11] 97 % of control | [6] 103 % of control | [13] 100 % of control | [7] 103 % of control | [15] 90 % of control

CN(C)Cc1c(C=C(c2ccccc2)c2ccccc2)ccc2ccccc12
inactive: dose: 50.0 mg/kg/injection, schedule: Q01DX001 (ip), vehicle: carboxymethylcellulose (CMC) 94 % of control | [21] 96 % of control | [22] 94 % of control | [23] 96 % of control

COc1ccc(NC(=O)Oc2ccccc2-c2ccccc2)cc1
inactive: [8] 91 % of control | [17] 91 % of control | [25] 86 % of control

c1ccc(-c2oc(-c3ccccc3)c3ccccc23)cc1
inactive: [18] 101 % of control | dose: 6.25 mg/kg/injection, schedule: Q04DX003 (ip), vehicle: Klucel (hydroxypropylcellulose) (HPC) 96 % of control | [19] 102 % of control | dose: 12.5 mg/kg/injection, schedule: Q04DX003 (ip), vehicle: Klucel (hydroxypropylcellulose) (HPC) 93 % of control | [20] 96 % of control | [16] 96 % of control

O=C(CC(=O)c1ccccc1)c1ccccc1.O=C(CC(=O)c1ccccc1)c1ccccc1.O=C(CC(=O)c1ccccc1)c1ccccc1.[Cr]
inactive: dose: 100.0 mg/kg/injection, schedule: Q04DX002 (ip), vehicle: Klucel (hydroxypropylcellulose) (HPC) 93 % of control | dose: 200.0 mg/kg/injection, schedule: Q04DX002 (ip), vehicle: Klucel (hydroxypropylcellulose) (HPC) 101 % of control | dose: 400.0 mg/kg/injection, schedule: Q04DX002 (ip), vehicle: Klucel (hydroxypropylcellulose) (HPC) 104 % of control

CCCCCCCC1CCCCC1
inactive: dose: 50.0 mg/kg/injection, schedule: Q01DX001 (ip), vehicle: saline 101 % of control | dose: 100.0 mg/kg/injection, schedule: Q01DX001 (ip), vehicle: saline 98 % of control | dose: 200.0 mg/kg/injection, schedule: Q01DX001 (ip), vehicle: saline 101 % of control | dose: 400.0 mg/kg/injection, schedule: Q01DX001 (ip), vehicle: saline 98 % of control

Cc1ncc(CO)c(/C=N\OCc2cccc(Cl)c2)c1O
inactive: [24] 100 % of control | [1] 100 % of control
